# Results published in ChEMBL document CHEMBL3044918, “Ability of vitamins to induce downy mildew disease resistance and growth promotion in pearl millet” (2007).
# Activity calls are given as the source filed them. No cut-off for these calls is given here.
# Key:
# [1] = test system: Cenchrus americanus; assay: (§1) Induction of systemic acquired resistance against Sclerospora graminicola in Cenchrus americanus cultivar 7042S assessed as protection against downy mildew disease at 20 mM applied to seeds prior to sowing followed by inoculation on 2 day old seedling measured on day 30 in green house conditions (reference value: 3%); type: functional
# [2] = test system: Cenchrus americanus; assay: Increase in seed vigor in Cenchrus americanus cultivar 7042S at 20 mM incubated for 6 hr followed by sowing measured at 7-day old seedling stage relative to control; type: functional, organism-based
# [3] = test system: Cenchrus americanus; assay: Stimulation of seed germination in Cenchrus americanus cultivar 7042S at 20 mM incubated for 6 hr followed by sowing measured at 7-day old seedling stage (reference value: 88%); type: functional
# [4] = test system: Cenchrus americanus; assay: as §1, with “and to foliar of 7” for “followed by inoculation on 2”, “seedling inoculated on day 2” for “seedling”, “field” for “green house”; type: functional
# [5] = test system: Cenchrus americanus; assay: Induction of systemic acquired resistance against Sclerospora graminicola in Cenchrus americanus cultivar 7042S assessed as protection against downy mildew disease at 20 mM applied to foliar of 7 day old seedling inoculated on day 2 measured on day 30 in field conditions (reference value: 2%); type: functional
# [6] = test system: Cenchrus americanus; assay: Effect on growth parameter in disease-susceptible Cenchrus americanus cultivar 7042S assessed as yield at 20 mM applied to seeds prior to sowing (reference value: 1209 +/- 9 kg/ha); type: functional
# [7] = test system: Cenchrus americanus; assay: Effect on growth parameter in disease-susceptible Cenchrus americanus cultivar 7042S assessed as girth of ear at 20 mM applied to seeds prior to sowing measured after 60 days (reference value: 3.6 +/- 0.9 cm); type: functional
# [8] = test system: Cenchrus americanus; assay: Effect on growth parameter in disease-susceptible Cenchrus americanus cultivar 7042S assessed as length of ear at 20 mM applied to seeds prior to sowing measured after 60 days (reference value: 9.4 +/- 0.8 cm); type: functional
# [9] = test system: Cenchrus americanus; assay: Effect on growth parameter in disease-susceptible Cenchrus americanus cultivar 7042S assessed as increase in prodcutive tillers at 20 mM applied to seeds prior to sowing measured after 60 days relative to control; type: functional, organism-based
# [10] = test system: Cenchrus americanus; assay: Stimulation of flowering in downy mildew disease-susceptible Cenchrus americanus cultivar 7042S assessed as days required for 50% flowering at 20 mM applied to seeds prior to sowing measured after 60 days (reference value: 44 +/- 0.7 days ); type: functional
# [11] = test system: Cenchrus americanus; assay: Stimulation of growth in downy mildew disease-susceptible Cenchrus americanus cultivar 7042S assessed as plant height at 20 mM applied to seeds prior to sowing measured after 60 days (reference value: 58.5 cm); type: functional
# [12] = test system: Cenchrus americanus; assay: as §1, with “seedling and challenge-inoculation to the inflorescence primordia at boot leaf stage” for “seedling”, “60” for “30”, “condition relative to control” for “conditions (reference value: 3%)”; type: functional
# [13] = test system: Cenchrus americanus; assay: as §1, with “seedling and challenge-inoculation to the nodal tiller” for “seedling”, “60” for “30”, “condition relative to control” for “conditions (reference value: 3%)”; type: functional
# [14] = test system: Cenchrus americanus; assay: as §1, with “at cleoptile stage at” for “on 2”, “6 post” for “old”, “seedling emergence” for “seedling”, “relative to control” for “(reference value: 3%)”; type: functional
# [15] = test system: Cenchrus americanus; assay: Effect on growth parameter in disease-susceptible Cenchrus americanus cultivar 7042S assessed as weight of 1000 seeds at 20 mM applied to seeds prior to sowing (reference value: 7.4 +/- 1.4 g); type: functional
# [16] = test system: Cenchrus americanus; assay: as §1, with “field” for “green house”; type: functional
# [17] = test system: Cenchrus americanus; assay: as §1, with “at cleoptile stage at” for “on 2”, “5 post” for “old”, “seedling emergence” for “seedling”, “relative to control” for “(reference value: 3%)”; type: functional
# [18] = test system: Cenchrus americanus; assay: as §1, with “at cleoptile stage at” for “on 2”, “4 post” for “old”, “seedling emergence” for “seedling”, “relative to control” for “(reference value: 3%)”; type: functional
# [19] = test system: Cenchrus americanus; assay: as §1, with “at cleoptile stage at” for “on 2”, “3 post” for “old”, “seedling emergence” for “seedling”, “relative to control” for “(reference value: 3%)”; type: functional
# [20] = test system: Cenchrus americanus; assay: (§2) Induction of systemic acquired resistance against Sclerospora graminicola in Cenchrus americanus cultivar 7042S assessed as protection against downy mildew disease at 20 mM applied to seeds prior to sowing followed by inoculation at cleoptile stage at day 2 post seedling emergence measured on day 30 in green house conditions relative to control; type: functional
# [21] = test system: Cenchrus americanus; assay: as §2, with “day 1” for “day 2”; type: functional
# [22] = test system: Cenchrus americanus; assay: Effect on seed vigor in Cenchrus americanus cultivar 7042S assessed as vigor index at 20 mM incubated for 6 hr followed by sowing measured at 7-day old seedling stage (reference value: 990); type: functional
# [23] = test system: Cenchrus americanus; assay: (§3) Induction of systemic acquired resistance against Sclerospora graminicola in Cenchrus americanus cultivar 7042S assessed as protection against downy mildew disease at 6 g/kg applied to foliar of 7 day old seedling inoculated on day 2 measured on day 30 in field conditions (reference value: 2%); type: functional
# [24] = test system: Cenchrus americanus; assay: as §3, with “to seeds prior to sowing and to” for “to”, “3%)” for “2%)”; type: functional
# [25] = test system: Cenchrus americanus; assay: as §1, with “6 g/kg” for “20 mM”, “field” for “green house”; type: functional
# [26] = test system: Cenchrus americanus; assay: as §1, with “6 g/kg” for “20 mM”, “condition(reference” for “conditions (reference”; type: functional
compound,measurement,setting,value
O=C(O)CCCC[C@@H]1SC[C@@H]2NC(=O)N[C@@H]21 [BIOTIN],Activity,[1],51%
same,Activity,[2],Active
same,Activity,[3],91%
Nc1nc(=O)c2nc(CNc3ccc(C(=O)N[C@@H](CCC(=O)O)C(=O)O)cc3)cnc2[nH]1 [FOLIC ACID],Activity,[1],42%
same,Activity,[2],Active
same,Activity,[3],90%
CC1(S(=O)(=O)[O-])CC(=O)c2ccccc2C1=O.[Na+] (stereo not given) [MENADIONE SODIUM BISULPHITE],Activity,[4],72%
same,Activity,[5],66%
same,Activity,[6],1328 kg/ha
same,Activity,[7],4.1 cm
same,Activity,[8],12 cm
same,Activity,[9],Active
same,Time,[10],40 days
same,Activity,[11],68 cm
same,Activity,[12],79%
same,Activity,[13],77%
same,Activity,[14],74%
same,Activity,[15],11.74 g
same,Activity,[16],68%
same,Activity,[17],74%
same,Activity,[18],73%
same,Activity,[19],65%
same,Activity,[20],51%
same,Activity,[21],46%
same,Activity,[1],73%
same,Vigour_index,[22],1312
same,Activity,[3],93%
COCC(=O)N(c1c(C)cccc1C)C(C)C(=O)OC (stereo not given) [METALAXYL],Activity,[23],91%
same,Activity,[24],92%
same,Activity,[25],92%
same,Activity,[26],92%
O=C(O)c1cccnc1 [NIACIN],Activity,[4],65%
same,Activity,[5],60%
same,Activity,[6],1306 kg/ha
same,Activity,[7],4 cm
same,Activity,[8],11.8 cm
same,Activity,[9],Active
same,Time,[10],42 days
same,Activity,[11],66 cm
same,Activity,[12],71%
same,Activity,[13],69%
same,Activity,[14],63%
same,Activity,[15],10.97 g
same,Activity,[16],63%
same,Activity,[17],63%
same,Activity,[18],63%
same,Activity,[19],56%
same,Activity,[20],51%
same,Activity,[21],45%
same,Activity,[1],63%
same,Vigour_index,[22],1217
same,Activity,[3],92%
Cc1ncc(CO)c(CO)c1O [PYRIDOXINE],Activity,[1],44%
same,Activity,[2],Active
same,Activity,[3],91%
Cc1cc2nc3c(=O)[nH]c(=O)nc-3n(C[C@H](O)[C@H](O)[C@H](O)CO)c2cc1C [RIBOFLAVIN],Activity,[4],67%
same,Activity,[5],61%
same,Activity,[6],1281 kg/ha
same,Activity,[7],3.9 cm
same,Activity,[8],11.4 cm
same,Activity,[9],Active
same,Time,[10],43 days
same,Activity,[11],62 cm
same,Activity,[12],69%
same,Activity,[13],64%
same,Activity,[14],63%
same,Activity,[15],9.5 g
same,Activity,[16],61%
same,Activity,[17],63%
same,Activity,[18],63%
same,Activity,[19],55%
same,Activity,[20],50%
same,Activity,[21],43%
same,Activity,[1],62%
same,Activity,[3],92%
